“And” between values parts separate entries of the source, which are not always exact repeats. Equal values may be shown once.
System: patients with TGCT
Test: Phase 1/2 open-label, multicenter study of vimseltinib in patients with TGCT: efficacy
Assay type: in vivo, human
Settings: for Worst stiffness NRS response rate / Worst stiffness NRS response rate, n of responders: Week 25, response = at least a 2-point decrease; for PROMIS-PF response rate / PROMIS-PF response rate, No. of responders: Week 25, response = at least a 3-point increase; for Active ROM response rate / Active ROM response rate, No. of responders: Week 25, response = at least a 10% increase
Method: This is a Phase 1/2 open-label, multicenter study evaluating the safety and efficacy of vimseltinib in patients with TGCT. In Phase 1, 32 patients enrolled in three cohorts across multiple doses. In Phase 2, 66 patients enrolled in two cohorts at the recommended Phase 2 dose of 30 mg twice weekly: Cohort A (n=46) in TGCT patients with no prior anti-CSF1/CSF1R therapy (prior therapy with imatinib or nilotinib allowed); and Cohort B (n=20) in TGCT patients with prior anti-CSF1/CSF1R therapy (prior therapy with imatinib or nilotinib alone not eligible). With regards to antitumor activity and treatment duration, 93 patients were evaluable for efficacy by RECIST version 1.1 at the data cutoff date.

[1] = Cohort A, Partial Response per RECIST v1.1 at Week 25 by IRR (n = 17)
[2] = Cohort A, Stable Disease per RECIST v1.1 at Week 25 by IRR (n = 22)
[3] = Cohort B (20 patients), Week 25
[4] = Cohort B, Partial Response per RECIST v1.1 at Week 25 by IRR (n = 5)
[5] = Cohort B, Stable Disease per RECIST v1.1 at Week 25 by IRR (n = 9)
[6] = Phase 2 Cohort A (n = 45), second data cutoff
[7] = Phase 2 Cohort B (n = 13), second data cutoff
[8] = Phase 2 Cohort B (n = 19), second data cutoff

Cc1nc(-c2cnc(NC(C)C)n(C)c2=O)ccc1Oc1ccnc(-c2cnn(C)c2)c1 [Vimseltinib, 2-(isopropylamino)-3-methyl-5-(6-methyl-5-((2-(1-methyl-IH-pyrazol-4-yl)pyridin-4-yl)oxy)pyridin-2-yl)pyrimidin-4(3H)-one]
Worst stiffness NRS at Week 25, mean (Cohort A (32 patients)): 3.1
PROMIS-PF at Week 25, mean (Cohort A (35 patients)): 43.9
BPI worst pain response rate (Cohort A (46 patients), Week 25): (50) %
BPI worst pain response rate, No. of responders (Cohort A (46 patients), Week 25, 30% or greater decrease without 30% or greater increase in narcotic analgesic use): 23 No.
Average pain responder [1]: 12 (71) No. (%)
Worst pain responder [1]: 10 (59) No. (%)
Average pain responder [2]: 12 (55) No. (%)
Worst pain responder [2]: 12 (55) No. (%)
PROMIS-PF change from baseline, mean (Cohort A, Week 25): 3.9
Worst stiffness NRS change from baseline, mean (Cohort A, Week 25): −1.8
Worst stiffness NRS response rate (Cohort A): (66) %
Worst stiffness NRS response rate, n of responders (Cohort A): 21 n
PROMIS-PF response rate (Cohort A): (49) %
PROMIS-PF response rate, No. of responders (Cohort A): 17 No.
Active ROM response rate (Cohort A): (42) %
Active ROM response rate, No. of responders (Cohort A): 19 No.
patients with BPI response for both worst pain and average pain (Cohort B (11/20), Week 25, ≥30% reduction in pain without ≥30% increase in narcotic analgesic use): 55%
Worst stiffness NRS at Week 25, mean (Cohort B (14 patients)): 2.6
PROMIS-PF at Week 25, mean (Cohort B (15 patients)): 49.5
BPI worst pain response rate [3]: (55) %
BPI worst pain response rate, No. of responders [3]: 11 No.
Average pain responder [4]: 2 (40) No. (%)
Worst pain responder [4]: 2 (40) No. (%)
Average pain responder [5]: 7 (78) No. (%)
Worst pain responder [5]: 7 (78) No. (%)
BPI responders among patients with objective responses by RECIST v1.1 (Cohort B, Week 25): 40%
BPI responders among patients with stable disease (Cohort B, Week 25): 78%
PROMIS-PF change from baseline, mean (Cohort B, Week 25): 6.2
Worst stiffness NRS change from baseline, mean (Cohort B, Week 25): −2.2
patients with clinically meaningful improvements in NRS stiffness (Cohort B, Week 25): 58%
patients with clinically meaningful improvements in PROMIS-PF (Cohort B, Week 25): 63%
Worst stiffness NRS response rate (Cohort B): (71) %
Worst stiffness NRS response rate, n of responders (Cohort B): 10 n
PROMIS-PF response rate (Cohort B): (80) %
PROMIS-PF response rate, No. of responders (Cohort B): 12 No.
Active ROM response rate (Cohort B): (26) %
Active ROM response rate, No. of responders (Cohort B): 5 No.
ORR per RECIST v1.1 by IRR (Phase 1 (n = 32), multiple doses, first data cutoff): 72%
progression as assessed by IRR (Phase 2, second data cutoff): no patients progressed
Active ROM at Week 25, mean (Phase 2 Cohort A (33 patients), second data cutoff): 77.8%
ORR per RECIST v1.1 by IRR at Week 25 (Phase 2 Cohort A (n = 45), 30 mg twice weekly, first data cutoff): 38%
ORR per RECIST v1.1 by IRR (Phase 2 Cohort A (n = 45), 30 mg twice weekly, no prior anti-CSF1/CSF1R therapy, first data cutoff): 64%
ORR per RECIST v1.1 by IRR [6]: 64%
ORR per RECIST v1.1 by IRR at Week 25 [6]: 38%
ORR per TVS by IRR [6]: 62%
ORR per TVS by IRR at Week 25 [6]: 51%
Active ROM, change from baseline at Week 25, mean (SD) (Phase 2 Cohort A, second data cutoff): 19.7 (43.5) percentage points and 19.7 percentage points
Active ROM of the affected joint at Week 25, mean (SD) [7]: 65.2 (37.5) % and 65.2%
Active ROM, change from baseline to Week 25, mean (SD) [7]: 14.1 (27.4) percentage points and 14.1 percentage points
ORR per RECIST v1.1 by IRR (Phase 2 Cohort B (n = 16), 30 mg twice weekly, prior anti-CSF1/CSF1R therapy, first data cutoff): 44%
ORR per RECIST v1.1 by IRR [8]: 37%
ORR per RECIST v1.1 by IRR at Week 25 [8]: 26%
ORR per TVS by IRR [8]: 42%
ORR per TVS by IRR at Week 25 [8]: 26%
symptomatic benefit across secondary efficacy measures (ORR by TVS, active range of motion, physical function, stiffness, pain) (Phase 2 Cohorts A and B, Week 25): clinically meaningful symptomatic benefit
Active ROM at Week 25: patients with decrease (Phase 2 cohort A, FIG. 9A): 4 n
Active ROM at Week 25: patients with increase from baseline (Phase 2 cohort A, FIG. 9A): 23 n
Active ROM at Week 25: patients with no change (Phase 2 cohort A, FIG. 9A): 5 n
Active ROM at Week 25: patients with decrease (Phase 2 cohort B, FIG. 9B): 1 n
Active ROM at Week 25: patients with increase from baseline (Phase 2 cohort B, FIG. 9B): 9 n
Active ROM at Week 25: patients with no change (Phase 2 cohort B, FIG. 9B): 3 n

Reference: US20260048052A1, “METHODS OF TREATING TENOSYNOVIAL GIANT CELL TUMORS” (Deciphera Pharmaceuticals, LLC, priority 2023, published 2026)
